Measurements as given in publication PMC6624652, “Compound Discovery and Structure-Activity Relationship Study of Neoantimycins Against Drug-Resistant Cancer Cells” (Frontiers in Chemistry, 2019).
Where two headings read alike, the source gives them in different places.

Tests used:
[1] = test system: noncancerous NCM460 colon cell line; experiment: WST-8 (CCK-8) in vitro cytotoxicity test, NCM460; format: cell-based; details: Homo sapiens, read-out: IC50, NCM460
Description: (§1) A WST-8 colorimetric assay (Cell Counting Kit-8, Dojindo) was used to determine the cytotoxicity of the obtained compounds against four human cancer cell lines (human gastric cancer cell line SGC7901, cisplatin-resistant human gastric cancer cell line SGC7901/DDP, human colon cancer cell line HCT-8, and taxol-resistant human colon cancer cell line HCT-8/T) and noncancerous NCM460 colon cell line. Each cell line (100 μL, 5 × 10^4 cells/mL) was inoculated into standard 96-well, flat-bottom microplates, and incubated with DMEM (for HCT-8 and NCM460) or RPMI-1640 (for HCT-8/T, SGC7901, and SGC7901/DDP) medium for 24 h at 37°C in a humidified atmosphere containing 5% CO2. The attached cells were then incubated with serially diluted NATs (1-8). After continuous exposure to the compounds for 72 h, 10 μL CCK-8 solution was added. After 3 h of incubation at 37°C (5% CO2), the absorbance was measured at 450 nm using a microtiter plate reader (SpectraMax 190, Molecular Devices). Cisplatin and taxol (purity ≥ 98% Sigma, USA) were used as positive controls. All studies were performed in triplicate and the IC50 values were calculated using Prism software.

[2] = test system: cisplatin-resistant human gastric cancer cell line SGC7901/DDP; experiment: WST-8 (CCK-8) in vitro cytotoxicity test, SGC7901/DDP; format: cell-based; details: read-out: IC50, SGC7901/DDP
Description: as §1

[3] = test system: SGC7901, SGC7901/DDP, HCT-8 and HCT-8/T cell lines; experiment: Cytotoxicity summarised over all four cancer cell lines; format: cell-based, human; details: for IC50: Homo sapiens, read-out: anti-proliferative activity (IC50 span) against all four cell lines; for fold higher activity than corresponding oxidized forms (3 and 4): in vitro, span over four cell lines; for fold better anti-proliferative activity in drug-resistant cell lines than in sensitive ones: span over compounds 3, 4, 7, 8
Description: as §1

[4] = test system: human colon cancer cell line HCT-8; experiment: WST-8 (CCK-8) in vitro cytotoxicity test, HCT-8; format: cell-based; details: read-out: IC50, HCT-8
Description: as §1

[5] = test system: taxol-resistant human colon cancer cell line HCT-8/T; experiment: WST-8 (CCK-8) in vitro cytotoxicity test, HCT-8/T; format: cell-based; details: read-out: IC50, HCT-8/T
Description: as §1

[6] = test system: human gastric cancer cell line SGC7901; experiment: WST-8 (CCK-8) in vitro cytotoxicity test, SGC7901; format: cell-based; details: read-out: IC50, SGC7901
Description: as §1

HT-29 cell line = test system: HT-29 cell line; set-up: method as in Li et al., 2013; details: ref Li et al., 2013; cited from earlier work
KB cells = test system: KB cells; set-up: method as in Takahashi et al., 2001; details: ref Takahashi et al., 2001; cited from earlier work
K562 cells = test system: K562 cells; set-up: method as in Takahashi et al., 2001; details: ref Takahashi et al., 2001; cited from earlier work
GRP78 = test system: GRP78; set-up: method as in Izumikawa et al., 2007; details: ref Izumikawa et al., 2007; cited from earlier work
HCT-8 cells [7] = experiment: Cell morphology, DAPI staining; format: cell-based, human; details: 72 h
Description: HCT-8 cells were seeded in 12-well plates at a density of 1 × 10^5 cells per well. After overnight adherence, they were exposed to the indicated concentration of NAT-A for 72 h. After that, the cells were washed with PBS and fixed 4% paraformaldehyde for 30 min at room temperature. After washing with PBS, the cells were stained with DAPI (100 ng/mL) for 15 min in the dark and photographed using a fluorescence microscope (Nikon, Japan).

HCT-8 cells [8] = experiment: Apoptosis analysis by flow cytometry (Annexin V-FITC/PI); format: cell-based, human; details: NAT-A 0.5 μM, 72 h, untreated 7.2 ± 1.1%
Description: An Annexin V-FITC/PI Apoptosis Detection kit I (BD Pharmingen, San Diego, CA, USA) was adopted to examine the cell apoptosis according to the manufacturer's instructions. HCT-8 cells were cultured on a six-well plate (3 × 10^5 cells/well) and allowed to attach for 24 h before treated with NAT-A (0 and 0.5 μM) for 72 h. Then cells were harvested, washed with PBS and resuspended in 1 × binding buffer. Cell suspension (100 μL) was incubated with 5 μL FITC Annexin-V and 5 μL propidium iodide (PI) for 15 min in the dark. Following the incubation, 400 μL 1 × binding buffer was added into each sample before analysis using flow cytometry (Thermo Fisher Scientific, Eugene, Oregon, USA). The lower left section of fluorocytogram (Annexin V-, PI-) represents the normal cells, lower right section of fluorocytogram (Annexin V+, PI-) represents early apoptosis cells, and upper right section of fluorocytogram (Annexin V+, PI+) represents late apoptosis cells.

[9] = 72 h exposure, CCK-8, mean ± SD, n = 3
[10] = Homo sapiens, HCT-8, 72 h exposure, CCK-8, mean ± SD, n = 3
[11] = Homo sapiens, HCT-8, taxol-resistant, 72 h exposure, CCK-8, mean ± SD, n = 3

Compound | IC50 ([2]; Homo sapiens, SGC-7901, 72 h) | fold better anti-proliferative activity in drug-resistant cell lines than in sensitive ones [3] | IC50 ([4]; Homo sapiens, HCT-8, 72 h) | IC50 ([5]; Homo sapiens, HCT-8, 72 h) | IC50 ([6]; Homo sapiens, SGC-7901, 72 h) | also measured
CC(C)[C@@H]1OC(=O)[C@@H](NC(=O)c2cccc(NC=O)c2O)[C@@H](C)OC(=O)[C@H](C(C)C)OC(=O)C(C)(C)[C@@H](O)[C@@H](Cc2ccccc2)OC1=O [Compound 8, Neoantimycin F] | 6.4 ± 0.5 nM | 5.2~33.5 fold | 136 ± 18.2 nM | 26.1 ± 0.1 nM | 98.5 ± 32.6 nM | IC50 ([1]; NCM460, 72 h): > 50000 nM; IC50 [3]: 1.5 to 523 nM; fold higher activity than corresponding oxidized forms (3 and 4) [3]: 1.2~13 fold; antiproliferative activity against HT-29 cell line (HT-29 cell line): hardly had any significant antiproliferative activity
CC(C)[C@@H]1OC(=O)[C@@H](NC(=O)c2cccc(N)c2O)[C@@H](C)OC(=O)[C@H](C(C)C)OC(=O)C(C)(C)C(=O)[C@@H](Cc2ccccc2)OC1=O [Compound 2, Neoantimycin K] | > 20000 nM | – | > 20000 nM | > 20000 nM | > 20000 nM | –
CCC(C)C1OC(=O)C(C)(C)C(O)C(Cc2ccccc2)OC(=O)C(C)OC(=O)C(NC(=O)c2cccc(NC=O)c2O)C(C)OC1=O (stereo not shown) [SW-163 A] | – | – | – | – | – | cytotoxicity against KB cells (KB cells): no cytotoxicity; cytotoxicity against K562 cells (K562 cells): no cytotoxicity
CC[C@H](C)[C@@H]1OC(=O)C(C)(C)C(=O)[C@@H](Cc2ccccc2)OC(=O)[C@H](C(C)C)OC(=O)[C@@H](NC(=O)c2cccc(NC=O)c2O)[C@@H](C)OC1=O [Compound 3, Neoantimycin H] | 12.2 ± 4.6 nM | 5.2~33.5 fold | 523 ± 104 nM | 26.6 ± 1.5 nM | 104 ± 22.7 nM | IC50 ([1]; NCM460, 72 h): 115 ± 18.7 nM; IC50 [3]: 1.5 to 523 nM
CC[C@H](C)[C@@H]1OC(=O)C(C)(C)[C@@H](O)[C@@H](Cc2ccccc2)OC(=O)[C@H](C)OC(=O)[C@@H](NC(=O)c2cccc(N)c2O)[C@H](C)OC1=O [JBIR-05] | – | – | – | – | – | expression of GRP78 (GRP78): inhibited the expression of GRP78
CC[C@H](C)[C@@H]1OC(=O)C(C)(C)[C@@H](O)[C@@H](Cc2ccccc2)OC(=O)[C@H](C(C)C)OC(=O)[C@@H](NC(=O)c2cccc(N)c2O)[C@@H](C)OC1=O [Compound 5, Neoantimycin D] | > 20000 nM | – | > 20000 nM | > 20000 nM | 10200 nM | antiproliferative activity against HT-29 cell line (HT-29 cell line): hardly had any significant antiproliferative activity; cytotoxic activity (cell line not named at b4) (HT-29 cell line): did not show any cytotoxic activity
CC[C@H](C)[C@@H]1OC(=O)C(C)(C)C(=O)[C@@H](Cc2ccccc2)OC(=O)[C@H](C(C)C)OC(=O)[C@@H](NC(=O)c2cccc(N)c2O)[C@@H](C)OC1=O [Compound 1, Neoantimycin J] | > 20000 nM | – | > 20000 nM | > 20000 nM | > 20000 nM | –
N.N.[Cl][Pt][Cl] [cisplatin, reference compound] | – | – | – | – | – | IC50 ([2]; cisplatin-resistant, 72 h exposure, CCK-8, mean ± SD, n = 3): 5670 nM; IC50 [4, 9]: 9490 nM; IC50 ([5]; taxol-resistant, 72 h exposure, CCK-8, mean ± SD, n = 3): > 20000 nM; IC50 [6, 9]: 2560 nM
CC(C)[C@@H]1OC(=O)[C@@H](NC(=O)c2cccc(N)c2O)[C@@H](C)OC(=O)[C@H](C(C)C)OC(=O)C(C)(C)[C@@H](O)[C@@H](Cc2ccccc2)OC1=O [Compound 6, Neoantimycin E] | > 20000 nM | – | 13100 nM | > 20000 nM | 1770 nM | antiproliferative activity against HT-29 cell line (HT-29 cell line): hardly had any significant antiproliferative activity
CC(C)[C@@H]1OC(=O)[C@@H](NC(=O)c2cccc(NC=O)c2O)[C@@H](C)OC(=O)[C@H](C(C)C)OC(=O)C(C)(C)C(=O)[C@@H](Cc2ccccc2)OC1=O [Compound 4, Neoantimycin I] | 15.7 ± 1.6 nM | 5.2~33.5 fold | 233 ± 20.1 nM | 32.6 ± 4.2 nM | 179 ± 18.3 nM | IC50 ([1]; NCM460, 72 h): > 50000 nM; IC50 [3]: 1.5 to 523 nM
CC(=O)O[C@H]1C(=O)[C@@]2(C)[C@H]([C@H](OC(=O)c3ccccc3)[C@]3(O)C[C@H](OC(=O)[C@H](O)[C@@H](NC(=O)c4ccccc4)c4ccccc4)C(C)=C1C3(C)C)[C@]1(OC(C)=O)CO[C@@H]1C[C@@H]2O [taxol, reference compound] | – | – | – | – | – | IC50 [4, 10]: 2520 nM; IC50 [5, 11]: > 20000 nM
CC[C@H](C)[C@@H]1OC(=O)C(C)(C)[C@@H](O)[C@@H](Cc2ccccc2)OC(=O)[C@H](C(C)C)OC(=O)[C@@H](NC(=O)c2cccc(NC=O)c2O)[C@@H](C)OC1=O [Compound 7, Neoantimycin A] | – | 5.2~33.5 fold | – | – | – | IC50 ([1]; NCM460, noncancerous colon cell, 72 h exposure, CCK-8, mean ± SD, n = 3): > 50000 nM; IC50 ([2]; Homo sapiens, SGC-7901, cisplatin-resistant, 72 h exposure, CCK-8, mean ± SD, n = 3): 1.5 ± 0.1 nM; IC50 ([3]; span over compounds 3, 4, 7, 8 and four cell lines): 1.5 to 523 nM; fold higher activity than corresponding oxidized forms (3 and 4) [3]: 1.2~13 fold; IC50 [4, 10]: 66.9 ± 5.7 nM; IC50 [5, 11]: 2 ± 0.1 nM; nuclear morphology after DAPI staining (HCT-8 cells [7]): nuclear shrinkage, DNA fragments as well as chromatin condensation; IC50 ([6]; Homo sapiens, SGC-7901, 72 h exposure, CCK-8, mean ± SD, n = 3): 24.5 ± 3.3 nM; percentage of apoptotic cells (Annexin V/PI) (HCT-8 cells [8]): 25.9 ± 0.7%
